This is an account of results in PubChem BioAssay AID1996.

Molecules are shown by their SMILES. In brackets after ≈: the same amount, converted by molar mass.

The conditions of this data set: buffer; pH 7.4; 200.0 µM.
`COc1ccccc1C(=O)Nc1sc2c(c1C#N)CCC2`: the solubility (kinetic) (commonly the concentration staying in solution when a stock, usually in DMSO, is diluted into the medium) is 0.5 µg/mL (≈ 1.68 µM). Under `Cc1nc2ccccc2c(=O)n1-c1cc([N+](=O)[O-])cc([N+](=O)[O-])c1` stands 17.1 µg/mL (≈ 52.4 µM); under `O=C(c1cc(-c2cccc(O)c2)on1)N1CCCCCC1`, 40.8 µg/mL (≈ 142 µM). In turn, `CC(C)(C)c1ccc(C(=O)NCC(=O)N2CCCCCC2)cc1` registered a solubility (kinetic) above 47.5 µg/mL. Next, `CCOc1ccccc1N=Cc1c(O)n(C)c(=O)n(C)c1=O`: 1.1 µg/mL (≈ 3.63 µM); `CC1(NC(=O)Nc2cccc(Br)c2)CCS(=O)(=O)C1` (stereo not drawn): above 52.1 µg/mL; `O=C(OCC(=O)N1CCN(C(=O)c2ccco2)CC1)c1c(Cl)cccc1Cl`: above 61.7 µg/mL. As for `CC(=O)N1CCN(C(=O)c2cc(=O)c3ccccc3o2)CC1`, the kinetic solubility was above 45 µg/mL. Next, `Cc1cc(C(=O)Nc2ccccc2Cc2ccccc2)no1`: 2.8 µg/mL (≈ 9.58 µM).

For the molecule `CCCCCC(O)(CCN1CCCCC1)c1ccccc1.Cl` (stereo not drawn), the kinetic solubility was above 48.9 µg/mL. On to `O=C(COC(=O)c1nsc(Cl)c1Cl)NC1CCCCC1`, for which the kinetic solubility is above 50.6 µg/mL.

Molecule `O=C(c1cccc(Oc2ccc([N+](=O)[O-])cc2)c1)N1CCOCC1` came in with a kinetic solubility above 49.2 µg/mL. On to `O=C(O)c1ccc[nH]c1=S`, for which the solubility (kinetic) is above 23.3 µg/mL. `CC(C)C(=O)N1CCC(Cc2ccccc2)CC1`: the solubility (kinetic) turned out to be 33.5 µg/mL (≈ 137 µM). `COc1ccc2oc(=N)c(C(=O)Nc3ccc(C)cc3)cc2c1` showed a kinetic solubility of 0.6 µg/mL (≈ 1.95 µM). `CC(C)Cc1ccc(C(=O)Nc2ccc(Cc3ccncc3)cc2)o1` yielded a kinetic solubility of 8.7 µg/mL (≈ 26 µM). Compared with the last molecule, the solubility kinetic is about 14-fold higher.

Consider `O=C(O)CC(c1ccccc1F)N1Cc2ccccc2C1=O` (stereo not drawn), for which the solubility (kinetic) is 43.7 µg/mL (≈ 146 µM). For `COCCCNc1ncnc2c1sc1nc(-c3ccco3)c3c(c12)CC(C)(C)OC3`, the kinetic solubility came out at 1.3 µg/mL (≈ 3.06 µM). Compared with the last molecule, the solubility kinetic is about 34-fold lower. As for `Cn1c(=O)n(C)c2cc(S(=O)(=O)N3CCCCC3)ccc21`, the solubility (kinetic) was above 46.4 µg/mL. In turn, `Cc1ccc(NC(=S)NC(=O)C2CC2)cc1Cl` yielded a kinetic solubility of 2.9 µg/mL (≈ 10.8 µM). Molecule `O=C(c1ccoc1)N1CCC(CO)(CCc2ccccc2)CC1` registered a kinetic solubility of 46 µg/mL (≈ 147 µM). Compared with the last molecule, the solubility kinetic is about 16-fold higher.

As to `Cc1ccc(SCC(=O)Nc2ccc(N3CCOCC3)cc2)cc1C`, the kinetic solubility came to 12.3 µg/mL (≈ 34.5 µM).

Regarding `COc1cccc(C(=O)NCCNC(=O)c2ccccn2)c1`, the kinetic solubility was above 44.9 µg/mL.

`CCN1C(=O)/C(=C\c2ccncc2)SC1=S`: the solubility (kinetic) is 6.2 µg/mL (≈ 24.8 µM). Molecule `COc1cccc(C(C)NC(=O)C2CCCC2)c1` (stereo not drawn) came in with a solubility (kinetic) above 37.1 µg/mL. In turn, `O=C(Cc1nc(-c2cnccn2)no1)NNC(=O)Nc1ccccc1` returned a solubility (kinetic) above 50.9 µg/mL. For the molecule `O=C(Nc1nnc(-c2cccnc2)o1)c1cccc([N+](=O)[O-])c1`, the solubility (kinetic) is above 46.7 µg/mL. `Cc1ccc(C)c(NC(=O)C2CC(O)CN2C(=O)Oc2ccccc2)c1` (stereo not drawn) gave a kinetic solubility of 45.4 µg/mL (≈ 128 µM). On to `CCN(CC)c1cc(Cl)c2nonc2c1N`, for which the kinetic solubility came to 8.5 µg/mL (≈ 35.3 µM).

For `O=C1CN(C(=O)COC(=O)[C@@H]2CC(O)CN2S(=O)(=O)c2ccc(Cl)cc2)c2ccccc2N1` (stereo partly drawn), the solubility (kinetic) is above 74.1 µg/mL. Next, `COc1cccc(OC)c1CN(C)C(=O)c1cnccc1C(F)(F)F`: above 53.1 µg/mL; `CC(=O)Nc1ccc(C(=O)OCC(=O)Nc2ccc(N3CCOCC3)cc2)cc1`: 7 µg/mL (≈ 17.6 µM). The molecule `CCOc1ccc(C(=O)NC2CC(C)(C)NC(C)(C)C2)cc1.Cl` showed a kinetic solubility above 51.1 µg/mL. For the molecule `Cc1ccc2c(c1)N(CC(=O)N1CCCCC1)C(=O)C(C)O2` (stereo not drawn), the kinetic solubility was above 45.4 µg/mL. On to `CCOc1ccc(Nc2nc(NCc3ccco3)nc(N)c2[N+](=O)[O-])cc1`, for which the solubility (kinetic) was below 0.1 µg/mL.

Take `CC(=O)Nc1cccc(C(=O)OCC(=O)c2ccccc2Cl)c1`: the solubility (kinetic) is 43 µg/mL (≈ 130 µM).

In turn, `O=C(O)CCc1ccc(-c2cccs2)n1CCc1ccccc1` gave a solubility (kinetic) above 48.8 µg/mL. Under `COc1ccc(S(=O)(=O)N2CCOCC2)cc1NC(=O)COC(=O)c1[nH]c(C)c(C(C)=O)c1C` stands 8.8 µg/mL (≈ 17.8 µM). Under `COC(=O)c1onc(-c2c(Cl)cccc2Cl)c1C(=O)OC` stands 41.2 µg/mL (≈ 125 µM).

With `CNC(=O)c1cc2cc(Cc3ccccc3Cl)ccc2oc1=O`, the kinetic solubility is below 0.7 µg/mL. In the case of `Cc1ccc(CC(=O)O/N=C(\N)c2ccccn2)cc1`, the kinetic solubility was 27.5 µg/mL (≈ 102 µM). Next, `O=C(COc1ccccc1Cl)NCc1ccccc1`: 20.6 µg/mL (≈ 74.7 µM). `O=[N+]([O-])c1ccc(S(=O)(=O)NCC2CC3CCC2C3)cc1` (stereo not drawn) yielded a kinetic solubility of 5.5 µg/mL (≈ 17.7 µM). For the molecule `Cc1ccc(Nc2c3c(nc4ccccc24)CCC3)cc1.Cl`, the kinetic solubility is 33.4 µg/mL.

Take `Cc1cc(NC(=O)c2ccc(-c3ccccc3F)o2)no1`: the kinetic solubility is 0.6 µg/mL (≈ 2.1 µM).

`CSc1ccccc1C(=O)N1CCCCC1` showed a kinetic solubility above 35.3 µg/mL.

The molecule `CCSc1nnc(NC(=O)CN2C(=O)NC3(CCCC3)C2=O)s1` yielded a kinetic solubility above 53.3 µg/mL. Take `Cc1ccc2c(c1)c(C1=c3ccccc3=NC1=O)c(O)n2C`: the solubility (kinetic) was determined as 1.1 µg/mL (≈ 3.79 µM). In turn, `CCNC(=S)Nc1cc2oc3ccccc3c2cc1OC` gave a kinetic solubility of 3.2 µg/mL (≈ 10.7 µM). The molecule `COc1ccc(NC2=NCCCS2)cc1OC` had a solubility (kinetic) above 37.8 µg/mL. In turn, `CCOC(=O)C(=CNc1ccc(S(N)(=O)=O)cc1)C(=O)OCC` registered a kinetic solubility of 37.8 µg/mL (≈ 110 µM). In turn, `CCc1cc2c(=O)c(-c3nc(C)cs3)coc2cc1O` had a solubility (kinetic) of 1.2 µg/mL (≈ 4.18 µM). The molecule `COc1ccc(C(CNC(=O)CN(C)S(=O)(=O)c2ccc(C)cc2)N2CCCC2)cc1` (stereo not drawn) gave a solubility (kinetic) above 66.8 µg/mL. Next, `O=S(=O)(Cc1ccccc1)N(O)c1ccccc1`: 7 µg/mL (≈ 26.6 µM). `COc1cccc(SCC2CSc3nc4ccccc4c(=O)n32)c1` (stereo not drawn) yielded a kinetic solubility above 53.5 µg/mL.

Take `COc1ccc2nc(NC(=O)c3ccc(F)cc3)sc2c1`: the kinetic solubility was below 0.3 µg/mL. `O=C(NCC1CCCO1)C1CC(=O)N(c2ccc(Cl)cc2)C1` (stereo not drawn): the solubility (kinetic) was above 48.4 µg/mL.

For `[O-][n+]1c2ccccc2[n+]([O-])c2cc(O)ccc21`, the kinetic solubility is above 34.2 µg/mL.

For the molecule `Cc1noc(C)c1COc1ccc(C(=O)N2CCC(C(N)=O)CC2)cc1`, the solubility (kinetic) is above 53.6 µg/mL. Under `CC(C)(C)Nc1nc(-c2ccc3c(c2)CCN3C(=O)C2CC2)cs1` stands 5.4 µg/mL (≈ 15.8 µM); under `Cc1ccc(S(=O)(=O)NCc2ccc3c(c2)OCO3)cc1C`, 5 µg/mL (≈ 15.7 µM). Next, `CCOC(=O)N1CCC(NC(=O)CCc2ccccc2)CC1`: above 45.7 µg/mL; `CCc1noc(C)c1C(=O)OCC(=O)c1ccc(NC(C)=O)cc1F`: 9.1 µg/mL (≈ 26.1 µM). For the molecule `O=C(NC(=S)N1CCN(C/C=C/c2ccccc2)CC1)c1cccnc1`, the kinetic solubility was above 55 µg/mL. With `S=C(NCc1cccnc1)c1ccccc1`, the solubility (kinetic) is above 34.2 µg/mL. For `Cc1ccc(S(=O)(=O)NC(=O)Nc2cccc(C)n2)cc1`, the kinetic solubility is above 45.8 µg/mL. Under `Fc1ccc(CO/N=C2\CCCc3nonc32)cc1` stands 3 µg/mL (≈ 11.5 µM); under `CCOc1ccc(C(C)=O)cc1COC(=O)CNC(=O)C12CC3CC(CC(C3)C1)C2`, 36.7 µg/mL (≈ 88.8 µM); under `CCCC(=O)Nc1nc(-c2ccc(Cl)s2)cs1`, 1.5 µg/mL (≈ 5.23 µM). Next, `Oc1cccc(Nc2nc(N3CCOCC3)nc(N3CCOCC3)n2)c1`: 46.1 µg/mL (≈ 129 µM).

As to `CC(=O)C(/C=N/c1ncc(C(F)(F)F)cc1Cl)=C(\C)O`, the kinetic solubility is 1.3 µg/mL (≈ 4.24 µM). This solubility kinetic is about 35-fold lower than that of the molecule before.

Turning to `N#Cc1ncn(-c2ccc(Oc3ccccc3)cc2)c1N`, the kinetic solubility was found to be 4 µg/mL (≈ 14.5 µM). In turn, `O=C(Cc1c(F)cccc1Cl)Nc1cc(S(=O)(=O)N2CCOCC2)ccc1N1CCCC1` had a solubility (kinetic) of 2 µg/mL (≈ 4.15 µM). On to `S=C(NCC1CCCO1)NC12CC3CC(CC(C3)C1)C2` (stereo not drawn), for which the solubility (kinetic) was determined as 4 µg/mL (≈ 13.6 µM). Next, `C/C=C/C(=O)OCC(=O)Nc1cccc(Br)c1`: 29 µg/mL (≈ 97.3 µM). The molecule `Cc1noc(C(=O)Nc2ccc(F)cc2F)c1Cl` registered a solubility (kinetic) of 13.2 µg/mL (≈ 48.4 µM). Under `CC(C)N(C(=O)Nc1ccc2nccnc2c1)C(C)C` stands 2.3 µg/mL (≈ 8.44 µM); under `COc1ccc(NS(=O)(=O)c2cn(C)cn2)c(OC)c1`, above 44.6 µg/mL; under `Cc1cc(C)c(C#N)c(N2CCN(c3ccc(F)cc3)CC2)n1`, below 0.2 µg/mL. The molecule `O=C(Nc1cccnc1Cl)c1ccc(=O)oc1` registered a solubility (kinetic) above 37.6 µg/mL.

Regarding `O=C1NC(=Nc2ccccc2)S/C1=C\c1cccnc1`, the solubility (kinetic) amounted to 2 µg/mL (≈ 7.11 µM). Molecule `CCOC(=O)C1CCN(C(=O)c2[nH]c3ccc(OC)cc3c2C)CC1` returned a kinetic solubility of 48.3 µg/mL (≈ 140 µM). Molecule `CCC(=Nc1ccccc1N)c1c(O)[nH]c(=O)[nH]c1=O` registered a solubility (kinetic) of 5.6 µg/mL (≈ 20.4 µM). As to `CC1CCc2sc3ncnc(N4CCN(CCO)CC4)c3c2C1` (stereo not drawn), the solubility (kinetic) was above 49.9 µg/mL. In turn, `Cc1cc(F)ccc1NC(=O)C1CSC2(C)CCC(=O)N12` (stereo not drawn) had a solubility (kinetic) above 46.3 µg/mL. On to `CCOC(=O)c1cc2c(ccn2C)n1CC(=O)Nc1ccc(F)cc1`, for which the solubility (kinetic) was 3.1 µg/mL (≈ 9.03 µM). Next, `Nc1nc(Nc2ccccc2)nc(C(F)(F)F)n1`: above 38.3 µg/mL; `CC(C)n1c(=S)[nH]c2cc(C(F)(F)F)ccc21`: 9.1 µg/mL (≈ 35 µM). For the molecule `COC(=O)Nc1ccc(S(=O)(=O)Nc2ncccn2)cc1`, the solubility (kinetic) was above 46.2 µg/mL. Next, `COCCNC(=O)/C(C#N)=C/c1ccc(C(=O)O)cc1`: above 41.1 µg/mL; `CCOC(=O)c1ccc(N2C(=O)CC(C)(CC)CC2=O)cc1`: above 45.5 µg/mL; `Cc1ccc(C)c(S(=O)(=O)NCC(=O)N2CCCC2)c1`: 41.4 µg/mL (≈ 140 µM). `CCC(C(=O)Nc1cc(Cl)c(OC)cc1OC)c1ccccc1` (stereo not drawn): the kinetic solubility is below 0.7 µg/mL. In turn, `CS(=O)(=O)N(Cc1ccccc1Cl)c1ccc(C(=O)N2CCCC2)cc1` came in with a solubility (kinetic) of 55.7 µg/mL (≈ 142 µM). The molecule `COCc1ccc(C(=O)Nc2cccc(S(=O)(=O)N(C)c3ccccc3)c2)cc1` gave a kinetic solubility of 15.7 µg/mL (≈ 38.2 µM). The molecule `COc1ccc(-n2c(C)c(C)c3c(NCCCN(C)C)ncnc32)cc1` yielded a solubility (kinetic) above 53 µg/mL. As to `CC(=O)c1c(C)n(-c2ccc(Cl)cc2)c2ccc(O)cc12`, the solubility (kinetic) was below 0.6 µg/mL.

The molecule `O=C(NC1=NCCS1)c1ccccc1Br` came in with a kinetic solubility above 42.8 µg/mL. Next, `Cc1cc(O)c(CN2CC=C(c3ccccc3)CC2)cc1C(C)C`: 1.2 µg/mL (≈ 3.73 µM); `Cc1ccc(N2C(=O)C3C4C=CC(CC4)C3C2=O)cc1Cl` (stereo not drawn): 1.4 µg/mL (≈ 4.64 µM); `CC(C)N(Cc1ccccc1)C(=O)COC(=O)c1cnccn1`: above 47 µg/mL. As to `Cc1ccc(NC(=O)CSc2nncs2)cc1Cl`, the solubility (kinetic) was above 45 µg/mL.

In turn, `CSc1ccc(CNCc2ccco2)cc1.Cl` registered a solubility (kinetic) above 40.5 µg/mL.
